This passage reports IC50 results from patent US20240294522A1 (Lead Discovery Center GmbH, priority 2021, published 2024).

Assay [1] has as its target T1, GRK5 (Homo sapiens, UniProt P34947).
T1 construct: purchased Thermo Scientific
In words: Lance Kinase Activity Assay, GRK5. The note with it: biochemical Lance kinase activity assay; class symbols A-F; read-out: GRK5 LANCE Assay (IC-50). The procedure, abridged:
(§1)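 IC50s from sigmoidal dose-response over 0.0025-10 μM compound, with phosphorylated ULight substrate detected by Eu anti-phospho antibody FRET after EDTA quench.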
(In general: TR-FRET usually uses a lanthanide donor and a delayed reading to cut background.)

For assay [2], the target named is T2, GRK2 (Homo sapiens, UniProt P25098).
T2 construct: purchased Thermo Scientific
T2 sequence (P25098 1-689): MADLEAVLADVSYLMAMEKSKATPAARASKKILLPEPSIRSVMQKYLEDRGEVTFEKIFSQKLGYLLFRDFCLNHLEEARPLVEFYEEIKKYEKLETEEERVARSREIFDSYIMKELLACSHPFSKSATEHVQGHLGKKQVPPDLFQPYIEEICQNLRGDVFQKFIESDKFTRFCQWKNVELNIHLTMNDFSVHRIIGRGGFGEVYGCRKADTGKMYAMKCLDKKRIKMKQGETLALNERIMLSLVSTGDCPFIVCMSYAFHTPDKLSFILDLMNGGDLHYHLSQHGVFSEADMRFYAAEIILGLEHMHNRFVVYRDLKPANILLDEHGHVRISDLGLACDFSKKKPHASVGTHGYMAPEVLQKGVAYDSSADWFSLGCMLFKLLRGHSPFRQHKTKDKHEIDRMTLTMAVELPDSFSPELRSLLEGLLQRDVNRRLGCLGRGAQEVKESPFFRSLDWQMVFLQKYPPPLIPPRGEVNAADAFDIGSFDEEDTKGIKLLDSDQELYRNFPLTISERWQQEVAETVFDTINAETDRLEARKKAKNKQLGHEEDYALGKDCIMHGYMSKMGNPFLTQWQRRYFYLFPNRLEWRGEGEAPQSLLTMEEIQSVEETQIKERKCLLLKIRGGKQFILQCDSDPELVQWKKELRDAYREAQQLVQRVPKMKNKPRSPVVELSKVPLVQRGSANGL
Put plainly: Lance Kinase Activity Assay, GRK2. The settings on record: biochemical Lance kinase activity assay; class symbols A-F; read-out: GRK2 LANCE Assay (IC-50). The procedure, abridged: as §1

T1 sequence (P34947 whole entry): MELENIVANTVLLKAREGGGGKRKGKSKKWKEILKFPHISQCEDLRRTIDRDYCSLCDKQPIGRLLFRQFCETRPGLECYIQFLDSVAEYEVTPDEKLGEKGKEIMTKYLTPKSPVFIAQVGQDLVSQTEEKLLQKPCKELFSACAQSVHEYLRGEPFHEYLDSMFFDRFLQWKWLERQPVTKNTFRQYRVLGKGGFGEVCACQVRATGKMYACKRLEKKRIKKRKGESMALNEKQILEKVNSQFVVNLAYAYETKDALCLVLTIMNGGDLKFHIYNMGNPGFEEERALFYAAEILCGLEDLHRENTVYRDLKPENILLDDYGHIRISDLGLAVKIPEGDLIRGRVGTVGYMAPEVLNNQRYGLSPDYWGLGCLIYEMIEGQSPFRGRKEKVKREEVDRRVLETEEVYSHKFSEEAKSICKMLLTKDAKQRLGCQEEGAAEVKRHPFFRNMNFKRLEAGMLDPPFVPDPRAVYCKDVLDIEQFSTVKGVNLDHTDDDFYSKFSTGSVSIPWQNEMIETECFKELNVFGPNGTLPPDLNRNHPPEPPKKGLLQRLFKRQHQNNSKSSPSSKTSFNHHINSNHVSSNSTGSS

`COc1ccc([C@@H](C)NC(=O)/C(C#N)=C/c2c[nH]c3ncc(-c4cccc(N5CCN(C)CC5)c4)cc23)cc1OC` [Example 122, (R,E)-2-cyano-N-(1-(3,4-dimethoxyphenyl)ethyl)-3-(5-(3-(4-methylpiperazin-1-yl)phenyl)-1H-pyrrolo[2,3-b]pyridin-3-yl)acrylamide]: the IC50 in assay [1] is at most 0.05 µM; in assay [2], above 10 µM.

Regarding `CN(C)CCC(NC(=O)/C(C#N)=C/c1c[nH]c2ncccc12)c1ccccc1` (stereo not drawn) [Example 48, (E)-2-cyano-N-(3-(dimethylamino)-1-phenylpropyl)-3-(1H-pyrrolo[2,3-b]pyridin-3-yl)acrylamide], the IC50 in assay [1] was at most 0.05 µM; in assay [2] it was 0.05 to 0.1 µM.

For `COc1ccc([C@@H](C)NC(=O)/C=C/c2c[nH]c3ncc(-c4cnn(C)c4)cc23)cc1OC` [Example 204, (R,E)-N-(1-(3,4-dimethoxyphenyl)ethyl)-3-(5-(1-methyl-1H-pyrazol-4-yl)-1H-pyrrolo[2,3-b]pyridin-3-yl)acrylamide], the results for the IC50 in assay [1] and in assay [2] were at most 0.05 µM and 1 to 10 µM, respectively.

With `COc1ccc([C@@H](C)NC(=O)/C=C/c2c[nH]c3ncc(-c4cccc(-c5ncc[nH]5)c4)cc23)cc1OC` [Example 199, (R,E)-3-(5-(3-(1H-imidazol-2-yl)phenyl)-1H-pyrrolo[2,3-b]pyridin-3-yl)-N-(1-(3,4-dimethoxyphenyl)ethyl)acrylamide], the IC50 in assay [1] is at most 0.05 µM; in assay [2], above 10 µM.

For `N#C/C(=C\c1c[nH]c2ncccc12)C(=O)NCc1cccc(C#N)c1` [Example 31, (E)-2-cyano-N-(3-cyanobenzyl)-3-(1H-pyrrolo[2,3-b]pyridin-3-yl)acrylamide], the IC50 lay in the range of 0.5 to 1 µM in assay [1] and 1 to 10 µM in assay [2].

For the compound `COc1ccc([C@@H](C)NC(=O)/C=C/c2c[nH]c3ncc(-c4cccc(S(=O)(=O)N(C)C)c4)cc23)cc1OC` [Example 198, (R,E)-N-(1-(3,4-dimethoxyphenyl)ethyl)-3-(5-(3-(N,N-dimethylsulfamoyl)phenyl)-1H-pyrrolo[2,3-b]pyridin-3-yl)acrylamide], the IC50 in assay [1] is at most 0.05 µM; in assay [2], 1 to 10 µM.

On to `COc1ccc([C@@H](C)NC(=O)/C(C#N)=C/c2c[nH]c3ncc(C(=O)N4CCOCC4)cc23)cc1OC` [Example 82], for which the results for the IC50 in assay [1] and in assay [2] were 0.1 to 0.5 µM and above 10 µM, respectively.

Consider `COc1ccc([C@@H](C)NC(=O)/C=C/c2c[nH]c3ncc(-c4ccc(NS(C)(=O)=O)cc4)cc23)cc1OC` [Example 187], for which the figures for the IC50 in assay [1] and in assay [2] were at most 0.05 µM and 1 to 10 µM, respectively.

Consider `C[C@@H](NC(=O)/C=C/c1c[nH]c2ncc(-c3cnn(C)c3)cc12)c1ccc2c(c1)OCO2` [Example 246, (R,E)-N-(1-(benzo[d][1,3]dioxol-5-yl)ethyl)-3-(5-(1-methyl-1H-pyrazol-4-yl)-1H-pyrrolo[2,3-b]pyridin-3-yl)acrylamide], for which the figures for the IC50 in assay [1] and in assay [2] were at most 0.05 µM and 1 to 10 µM, respectively.

On to `COc1ccc([C@@H](C)NC(=O)/C(C#N)=C/c2c[nH]c3ncc(O[C@@H]4CCOC4)cc23)cc1OC` [Example 107, (E)-2-cyano-N-((R)-1-(3,4-dimethoxyphenyl)ethyl)-3-(5-(((R)-tetrahydrofuran-3-yl)oxy)-1H-pyrrolo[2,3-b]pyridin-3-yl)acrylamide], for which the IC50 is at most 0.05 µM in assay [1] and 0.5 to 1 µM in assay [2].

Consider `COc1ccc([C@@H](C)NC(=O)/C=C/c2c[nH]c3ncc(-c4cccc(N5CCN(C)CC5)c4)cc23)cc1OC` [Example 185], for which the figures for the IC50 in assay [1] and in assay [2] were at most 0.05 µM and 1 to 10 µM, respectively.

Turning to `COc1ccc([C@@H](C)NC(=O)/C(C#N)=C/c2c[nH]c3ncc(-c4ccccc4OC)cc23)cc1OC` [Example 124], the IC50 in assay [1] was 0.1 to 0.5 µM; in assay [2], above 10 µM.

For the compound `COc1ccc([C@@H](C)NC(=O)/C(C#N)=C/c2c[nH]c3ncc(-c4ccc(NC(C)=O)cc4)cc23)cc1OC` [Example 142], the IC50 was at most 0.05 µM in assay [1] and 1 to 10 µM in assay [2].

Regarding `CCN(CC)CCC(NC(=O)/C(C#N)=C/c1c[nH]c2ncccc12)c1ccccc1` (stereo not drawn) [Example 52, (E)-2-cyano-N-(3-(diethylamino)-1-phenylpropyl)-3-(1H-pyrrolo[2,3-b]pyridin-3-yl)acrylamide], the IC50 in assay [1] and in assay [2] was 0.1 to 0.5 µM each time.

Consider `COc1ccc([C@@H](C)NC(=O)/C=C/c2c[nH]c3ncc(-c4cccc(S(C)(=O)=O)c4)cc23)cc1OC` [Example 114, (R,E)-N-(1-(3,4-dimethoxyphenyl)ethyl)-3-(5-(3-(methylsulfonyl)phenyl)-1H-pyrrolo[2,3-b]pyridin-3-yl)acrylamide], for which the figures for the IC50 in assay [1] and in assay [2] were at most 0.05 µM and 1 to 10 µM, respectively.

With `COc1cc([C@@H](C)NC(=O)/C=C/c2c[nH]c3ncc(C)cc23)ccc1F` [Example 54, (R,E)-N-(1-(4-fluoro-3-methoxyphenyl)ethyl)-3-(5-methyl-1H-pyrrolo[2,3-b]pyridin-3-yl)acrylamide], the IC50 in assay [1] and in assay [2] was at most 0.05 µM in each case.

With `COc1ccc([C@@H](C)NC(=O)/C(C#N)=C/c2c[nH]c3ncc(-c4ccc(N(C)C)nc4)cc23)cc1OC` [Example 147, (R,E)-2-cyano-N-(1-(3,4-dimethoxyphenyl)ethyl)-3-(5-(6-(dimethylamino)pyridin-3-yl)-1H-pyrrolo[2,3-b]pyridin-3-yl)acrylamide], the IC50 in assay [1] was at most 0.05 µM; in assay [2] it was 1 to 10 µM.

Regarding `COc1ccc([C@@H](C)NC(=O)/C=C/c2c[nH]c3ncc(-c4cc(S(C)(=O)=O)ccn4)cc23)cc1OC` [Example 259, (R,E)-N-(1-(3,4-dimethoxyphenyl)ethyl)-3-(5-(4-(methylsulfonyl)pyridin-2-yl)-1H-pyrrolo[2,3-b]pyridin-3-yl)acrylamide], the IC50 was at most 0.05 µM in assay [1] and 1 to 10 µM in assay [2].

For the compound `COc1ccc([C@@H](C)NC(=O)/C(C#N)=C/c2c[nH]c3ncc(-c4cnn5ccccc45)cc23)cc1OC` [Example 167], the IC50 in assay [1] was at most 0.05 µM; in assay [2], 1 to 10 µM.

As for `COc1ccc([C@@H](C)NC(=O)/C(C#N)=C/c2c[nH]c3ncc(OCc4nccn4C)cc23)cc1OC` [Example 106, (R,E)-2-cyano-N-(1-(3,4-dimethoxyphenyl)ethyl)-3-(5-((1-methyl-1H-imidazol-2-yl)methoxy)-1H-pyrrolo[2,3-b]pyridin-3-yl)acrylamide], the IC50 is at most 0.05 µM in assay [1] and 1 to 10 µM in assay [2].

For `COc1ccc([C@@H](C)NC(=O)/C(C#N)=C/c2c[nH]c3nccc(-c4cccc(N5CCN(C)CC5)c4)c23)cc1OC` [Example 172, (R,E)-2-cyano-N-(1-(3,4-dimethoxyphenyl)ethyl)-3-(4-(3-(4-methylpiperazin-1-yl)phenyl)-1H-pyrrolo[2,3-b]pyridin-3-yl)acrylamide], the IC50 in assay [1] was at most 0.05 µM; in assay [2] it was 1 to 10 µM.

Turning to `COc1ccc([C@@H](C)NC(=O)/C(C#N)=C/c2c[nH]c3ncc(C)cc23)cc1OC` [Example 87, (R,E)-2-cyano-N-(1-(3,4-dimethoxyphenyl)ethyl)-3-(5-methyl-1H-pyrrolo[2,3-b]pyridin-3-yl)acrylamide], the IC50 in assay [1] is at most 0.05 µM; in assay [2], 0.5 to 1 µM.

For the compound `COc1ccc([C@@H](C)NC(=O)/C(C#N)=C/c2c[nH]c3ncc(-c4ccc(CCN(C)C)cc4)cc23)cc1OC` [Example 134], the IC50 in assay [1] was at most 0.05 µM; in assay [2] it was 1 to 10 µM.

`COc1ccc([C@@H](C)NC(=O)/C=C/c2c[nH]c3ncc(-c4cccc([S+]([O-])C(F)(F)F)c4)cc23)cc1OC` (stereo partly drawn) [Example 263, (E)-N-((R)-1-(3,4-dimethoxyphenyl)ethyl)-3-(5-(3-((trifluoromethyl)sulfinyl)phenyl)-1H-pyrrolo[2,3-b]pyridin-3-yl)acrylamide]: the IC50 in assay [1] is at most 0.05 µM; in assay [2] it was above 10 µM.

On to `C[C@@H](NC(=O)/C(C#N)=C/c1c[nH]c2ncc(-c3cnn(C)c3)cc12)c1ccc(F)c(F)c1` [Example 258, (R,E)-2-cyano-N-(1-(3,4-difluorophenyl)ethyl)-3-(5-(1-methyl-1H-pyrazol-4-yl)-1H-pyrrolo[2,3-b]pyridin-3-yl)acrylamide], for which the IC50 in assay [1] is at most 0.05 µM; in assay [2], 0.1 to 0.5 µM.

With `COc1ccc([C@@H](C)NC(=O)/C=C/c2c[nH]c3ncc(-c4cn(C)nc4C)cc23)cc1OC` [Example 212, (R,E)-N-(1-(3,4-dimethoxyphenyl)ethyl)-3-(5-(1,3-dimethyl-1H-pyrazol-4-yl)-1H-pyrrolo[2,3-b]pyridin-3-yl)acrylamide], the IC50 is at most 0.05 µM in assay [1] and 1 to 10 µM in assay [2].

Regarding `COc1ccc([C@@H](C)NC(=O)/C=C/c2c[nH]c3ncc(-c4cc(F)cc(S(C)(=O)=O)c4)cc23)cc1OC` [Example 249, (R,E)-N-(1-(3,4-dimethoxyphenyl)ethyl)-3-(5-(3-fluoro-5-(methylsulfonyl)phenyl)-1H-pyrrolo[2,3-b]pyridin-3-yl)acrylamide], the IC50 in assay [1] was at most 0.05 µM; in assay [2] it was 1 to 10 µM.
